Laboratory results reported in patent US10053465B2 (Incyte Corporation, priority 2015, dated 2018).
Where two headings read alike, the source gives them in different places.

What was measured:
Tyro3 = Tyro3 (Homo sapiens (Human), UniProt Q06418); test: biochemical; conditions: read-out: Tyro3IC50
Method: (§1) 0.1 ul test compounds dissolved in DMSO were transferred from compound plates to white 384-well assay plates (Greiner [sequence] plates). […] The plate was protected from light and incubated at room temperature for 60 min.

c-Mer = c-Mer (Homo sapiens (Human), UniProt Q12866); conditions: read-out: c-Mer IC50; HTRF, 60 min room temperature
Method: as §1

Phospho-Axl = Phospho-Axl (Homo sapiens (Human), UniProt P30530); test: biochemical;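 also: test system is recombinant Axl protein that was first autophosphorylated with ATP and MgCl2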
Chain of Phospho-Axl (P30530 26-894): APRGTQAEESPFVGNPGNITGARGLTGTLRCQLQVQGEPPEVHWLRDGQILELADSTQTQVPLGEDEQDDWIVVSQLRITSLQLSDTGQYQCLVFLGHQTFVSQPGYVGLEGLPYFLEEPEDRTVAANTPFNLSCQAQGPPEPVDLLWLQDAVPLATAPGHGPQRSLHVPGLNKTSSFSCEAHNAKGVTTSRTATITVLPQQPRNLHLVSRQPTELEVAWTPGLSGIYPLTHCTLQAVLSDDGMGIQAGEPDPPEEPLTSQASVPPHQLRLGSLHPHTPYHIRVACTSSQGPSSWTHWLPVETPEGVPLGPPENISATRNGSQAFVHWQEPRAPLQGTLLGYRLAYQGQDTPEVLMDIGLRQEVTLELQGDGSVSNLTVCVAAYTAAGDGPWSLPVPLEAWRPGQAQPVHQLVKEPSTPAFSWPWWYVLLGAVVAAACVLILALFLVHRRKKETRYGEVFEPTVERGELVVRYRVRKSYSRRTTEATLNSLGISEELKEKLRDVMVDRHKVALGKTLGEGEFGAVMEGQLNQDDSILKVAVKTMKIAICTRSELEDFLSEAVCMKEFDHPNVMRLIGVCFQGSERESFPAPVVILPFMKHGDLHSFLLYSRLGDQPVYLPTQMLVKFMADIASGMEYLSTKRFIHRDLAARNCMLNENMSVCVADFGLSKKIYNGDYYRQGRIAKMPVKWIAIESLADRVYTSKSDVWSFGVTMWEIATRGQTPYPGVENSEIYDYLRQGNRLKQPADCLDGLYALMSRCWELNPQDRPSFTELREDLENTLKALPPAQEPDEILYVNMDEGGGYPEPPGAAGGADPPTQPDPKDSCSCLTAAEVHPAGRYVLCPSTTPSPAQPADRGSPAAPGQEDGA
Method: Autophosphorylation of Axl was carried out by incubating the recombinant Axl protein (Life Technologies, PV4275) in buffer containing 50 mM Tris, pH7.5, 0.2 mg/ml Axl, 5 mM ATP, 20 mM MgCl2 and 2 mM DTT at room temperature for 1 hour.
as §1

Chain of Tyro3 (Q06418 41-890): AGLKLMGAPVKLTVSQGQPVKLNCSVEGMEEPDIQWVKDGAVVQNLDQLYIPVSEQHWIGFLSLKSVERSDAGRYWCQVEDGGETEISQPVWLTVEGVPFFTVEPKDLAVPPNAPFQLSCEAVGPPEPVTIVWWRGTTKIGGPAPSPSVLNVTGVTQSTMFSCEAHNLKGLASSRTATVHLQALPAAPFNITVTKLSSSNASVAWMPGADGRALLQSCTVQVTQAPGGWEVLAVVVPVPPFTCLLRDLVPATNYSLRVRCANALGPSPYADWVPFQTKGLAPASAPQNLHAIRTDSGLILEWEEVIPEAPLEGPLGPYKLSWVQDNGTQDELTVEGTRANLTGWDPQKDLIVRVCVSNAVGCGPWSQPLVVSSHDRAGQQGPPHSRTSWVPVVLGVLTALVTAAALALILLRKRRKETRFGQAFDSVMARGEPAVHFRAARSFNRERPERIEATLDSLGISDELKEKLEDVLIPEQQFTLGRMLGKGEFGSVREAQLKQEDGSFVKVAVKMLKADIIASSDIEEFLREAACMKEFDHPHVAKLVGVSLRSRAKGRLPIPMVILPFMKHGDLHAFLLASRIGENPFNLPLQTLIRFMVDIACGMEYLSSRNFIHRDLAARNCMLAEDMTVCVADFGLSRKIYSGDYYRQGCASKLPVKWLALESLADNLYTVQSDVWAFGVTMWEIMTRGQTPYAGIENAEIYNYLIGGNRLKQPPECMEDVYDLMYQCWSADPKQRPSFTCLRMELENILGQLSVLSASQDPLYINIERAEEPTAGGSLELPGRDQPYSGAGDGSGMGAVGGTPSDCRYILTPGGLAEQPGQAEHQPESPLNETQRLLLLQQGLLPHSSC
Chain of c-Mer (Q12866 21-999): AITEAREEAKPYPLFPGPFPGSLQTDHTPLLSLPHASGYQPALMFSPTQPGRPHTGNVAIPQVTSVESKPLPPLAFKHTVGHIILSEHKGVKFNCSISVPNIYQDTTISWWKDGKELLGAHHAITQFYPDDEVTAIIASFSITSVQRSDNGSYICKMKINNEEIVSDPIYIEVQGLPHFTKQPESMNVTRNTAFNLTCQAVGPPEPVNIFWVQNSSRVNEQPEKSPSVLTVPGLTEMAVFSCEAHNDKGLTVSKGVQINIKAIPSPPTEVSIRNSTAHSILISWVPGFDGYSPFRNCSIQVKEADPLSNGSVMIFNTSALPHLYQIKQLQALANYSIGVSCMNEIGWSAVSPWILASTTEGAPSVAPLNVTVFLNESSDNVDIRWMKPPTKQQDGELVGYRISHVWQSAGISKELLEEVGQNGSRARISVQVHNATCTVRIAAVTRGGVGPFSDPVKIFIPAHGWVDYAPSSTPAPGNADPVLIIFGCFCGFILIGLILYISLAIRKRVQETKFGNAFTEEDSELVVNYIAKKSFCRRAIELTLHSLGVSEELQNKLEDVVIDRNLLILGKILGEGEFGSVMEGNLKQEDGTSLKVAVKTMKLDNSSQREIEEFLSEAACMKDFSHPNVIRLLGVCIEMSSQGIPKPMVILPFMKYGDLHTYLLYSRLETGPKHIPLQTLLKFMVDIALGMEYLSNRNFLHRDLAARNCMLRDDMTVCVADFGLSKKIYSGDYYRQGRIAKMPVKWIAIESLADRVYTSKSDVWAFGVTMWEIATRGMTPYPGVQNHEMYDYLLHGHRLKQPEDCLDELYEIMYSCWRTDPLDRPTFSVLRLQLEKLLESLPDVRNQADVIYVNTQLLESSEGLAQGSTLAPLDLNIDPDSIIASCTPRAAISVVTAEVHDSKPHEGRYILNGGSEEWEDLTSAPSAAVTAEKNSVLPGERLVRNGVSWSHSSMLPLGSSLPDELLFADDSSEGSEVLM

Compound	IC50 (Tyro3) [nM]	IC50 (c-Mer) [nM]	IC50 (Phospho-Axl; HTRF, 60 min room temperature) [nM]	IC50 (Phospho-Axl) [nM]
O=C(NCC1(c2cccc(-c3ncnc4[nH]ccc34)c2)Cc2ccccc2C1)N1CCOCC1 [Example 35, N-({2-[3-(7H-Pyrrolo[2,3-d]pyrimidin-4-yl)phenyl]-2,3-dihydro-1H-inden-2-yl}methyl)morpholine-4-carboxamide]	> 3000	> 3000	–	–
N#CCC1(c2cccc(-c3ncnc4[nH]ccc34)c2)Cc2ccccc2C1 [Example 36, {2-[3-(7H-Pyrrolo[2,3-d]pyrimidin-4-yl)phenyl]-2,3-dihydro-1H-inden-2-yl}acetonitrile]	> 3000	–	–	–
NCCC1(c2cccc(-c3ncnc4[nH]ccc34)c2)Cc2ccccc2C1 [Example 37, 2-{2-[3-(7H-Pyrrolo[2,3-d]pyrimidin-4-yl)phenyl]-2,3-dihydro-1H-inden-2-yl}ethanamine]	> 3000	–	< 500	–
CC(C)C(=O)NCCC1(c2cccc(-c3ncnc4[nH]ccc34)c2)Cc2ccccc2C1 [Example 38, 2-Methyl-N-(2-{2-[3-(7H-pyrrolo[2,3-d]pyrimidin-4-yl)phenyl]-2,3-dihydro-1H-inden-2-yl}ethyl)propanamide]	> 3000	–	–	–
O=C(NCCC1(c2cccc(-c3ncnc4[nH]ccc34)c2)Cc2ccccc2C1)C1CC1 [Example 39, N-(2-{2-[3-(7H-Pyrrolo[2,3-d]pyrimidin-4-yl)phenyl]-2,3-dihydro-1H-inden-2-yl}ethyl)cyclopropanecarboxamide]	> 3000	–	< 500	–
NCC1(c2cccc(-c3ncnc4[nH]ccc34)c2)Cc2ccc(CNC3CC3)cc2C1 (centres unmarked) [Example 40, N-((2-(3-(7H-Pyrrolo[2,3-d]pyrimidin-4-yl)phenyl)-2-(aminomethyl)-2,3-dihydro-1H-inden-5-yl)methyl)cyclopropanamine]	> 3000	> 3000	–	–
NCC1(c2cccc(-c3ncnc4[nH]ccc34)c2)Cc2ccc(CNC3CCC3)cc2C1 (centres unmarked) [Example 41, N-((2-(3-(7H-Pyrrolo[2,3-d]pyrimidin-4-yl)phenyl)-2-(aminomethyl)-2,3-dihydro-1H-inden-5-yl)methyl)cyclobutanamine]	> 3000	> 3000	–	–
NCC1(c2cccc(-c3ncnc4[nH]ccc34)c2)Cc2ccc(CN3CCC[C@@H]3C(N)=O)cc2C1 (stereo partly drawn) [Example 43, (2R)-1-((2-(3-(7H-Pyrrolo[2,3-d]pyrimidin-4-yl)phenyl)-2-(aminomethyl)-2,3-dihydro-1H-inden-5-yl)methyl)pyrrolidine-2-carboxamide]	> 3000	–	> 3000	–
NCC1(c2cccc(-c3ncnc4[nH]ccc34)c2)Cc2ccc(CN3CC[C@H](C(N)=O)C3)cc2C1 (stereo partly drawn) [Example 44, (3S)-1-((2-(3-(7H-Pyrrolo[2,3-d]pyrimidin-4-yl)phenyl)-2-(aminomethyl)-2,3-dihydro-1H-inden-5-yl)methyl)pyrrolidine-3-carboxamide]	–	> 3000	–	–
NCC1(c2cccc(-c3ncnc4[nH]ccc34)c2)Cc2ccc(CN3CCC3)cc2C1 (centres unmarked) [Example 46, (2-(3-(7H-Pyrrolo[2,3-d]pyrimidin-4-yl)phenyl)-5-(azetidin-1-ylmethyl)-2,3-dihydro-1H-inden-2-yl)methanamine]	–	> 3000	–	–
NCC1(c2cccc(-c3ncnc4[nH]ccc34)c2)Cc2ccc(CN3CC(F)C3)cc2C1 (centres unmarked) [Example 47, (2-(3-(7H-Pyrrolo[2,3-d]pyrimidin-4-yl)phenyl)-5-((3-fluoroazetidin-1-yl)methyl)-2,3-dihydro-1H-inden-2-yl)methanamine]	–	> 3000	–	–
N#Cc1ccc2c(c1)CC(CNC(=O)C1CC1)(c1cccc(-c3ncnc4[nH]ccc34)c1)C2 (centres unmarked) [Example 50, N-({5-Cyano-2-[3-(7H-pyrrolo[2,3-d]pyrimidin-4-yl)phenyl]-2,3-dihydro-1H-inden-2-yl}methyl)cyclopropanecarboxamide]	> 3000	–	–	–
CN(C)C1CCN(c2ccc3c(c2)CC(CN)(c2cccc(-c4ncnc5[nH]ccc45)c2)C3)C1 (centres unmarked) [Example 52, 1-{2-(Aminomethyl)-2-[3-(7H-pyrrolo[2,3-d]pyrimidin-4-yl)phenyl]-2,3-dihydro-1H-inden-5-yl}-N,N-dimethylpyrrolidin-3-amine]	> 3000	–	> 3000	–
CNC1CCN(c2ccc3c(c2)CC(CN)(c2cccc(-c4ncnc5[nH]ccc45)c2)C3)C1 (centres unmarked) [Example 53, 1-{2-(Aminomethyl)-2-[3-(7H-pyrrolo[2,3-d]pyrimidin-4-yl)phenyl]-2,3-dihydro-1H-inden-5-yl}-N-methylpyrrolidin-3-amine]	> 3000	–	> 3000	–
NCC1(c2cccc(-c3ncnc4[nH]ccc34)c2)Cc2ccc(N3CCC(O)C3)cc2C1 (centres unmarked) [Example 54, 1-{2-(Aminomethyl)-2-[3-(7H-pyrrolo[2,3-d]pyrimidin-4-yl)phenyl]-2,3-dihydro-1H-inden-5-yl}pyrrolidin-3-ol]	> 3000	–	–	–
CC(O)C1CCN(c2ccc3c(c2)CC(CN)(c2cccc(-c4ncnc5[nH]ccc45)c2)C3)C1 (centres unmarked) [Example 55, 1-(1-{2-(Aminomethyl)-2-[3-(7H-pyrrolo[2,3-d]pyrimidin-4-yl)phenyl]-2,3-dihydro-1H-inden-5-yl}pyrrolidin-3-yl)ethanol]	> 3000	–	> 3000	–

Compound	IC50 (Tyro3) [nM]	IC50 (c-Mer) [nM]	IC50 (Phospho-Axl; HTRF, 60 min room temperature) [nM]	IC50 (Phospho-Axl) [nM]
NCC1(c2cccc(-c3ncnc4[nH]ccc34)c2)Cc2ccc(N3CCCC(O)C3)cc2C1 (centres unmarked) [Example 58, 1-{2-(Aminomethyl)-2-[3-(7H-pyrrolo[2,3-d]pyrimidin-4-yl)phenyl]-2,3-dihydro-1H-inden-5-yl}piperidin-3-ol]	< 500	> 3000	–	–
N#CC1CCN(c2ccc3c(c2)CC(CN)(c2cccc(-c4ncnc5[nH]ccc45)c2)C3)CC1 (centres unmarked) [Example 59, 1-{2-(Aminomethyl)-2-[3-(7H-pyrrolo[2,3-d]pyrimidin-4-yl)phenyl]-2,3-dihydro-1H-inden-5-yl}piperidine-4-carbonitrile]	–	> 3000	–	–
NCC1(c2cccc(-c3ncnc4[nH]ccc34)c2)Cc2ccc(NC3CCOCC3)cc2C1 (centres unmarked) [Example 60, N-{2-(Aminomethyl)-2-[3-(7H-pyrrolo[2,3-d]pyrimidin-4-yl)phenyl]-2,3-dihydro-1H-inden-5-yl}tetrahydro-2H-pyran-4-amine]	–	> 3000	–	–
NCC1(c2cccc(-c3ncnc4[nH]ccc34)c2)Cc2ccc(N3CCCC3)cc2C1 (centres unmarked) [Example 61, 1-{5-Pyrrolidin-1-yl-2-[3-(7H-pyrrolo[2,3-d]pyrimidin-4-yl)phenyl]-2,3-dihydro-1H-inden-2-yl}methanamine]	> 3000	–	–	–
COCCCNc1ccc2c(c1)CC(CN)(c1cccc(-c3ncnc4[nH]ccc34)c1)C2 (centres unmarked) [Example 66, 2-(Aminomethyl)-N-(3-methoxypropyl)-2-[3-(7H-pyrrolo[2,3-d]pyrimidin-4-yl)phenyl]indan-5-amine]	> 3000	–	–	–
COCC1(Nc2ccc3c(c2)CC(CN)(c2cccc(-c4ncnc5[nH]ccc45)c2)C3)CC1 (centres unmarked) [Example 67, 2-(Aminomethyl)-N-[1-(methoxymethyl)cyclopropyl]-2-[3-(7H-pyrrolo[2,3-d]pyrimidin-4-yl)phenyl]indan-5-amine]	> 3000	–	–	–
NCC1(c2cccc(-c3ncnc4[nH]ccc34)c2)Cc2ccc(-c3cccc(F)c3)cc2C1 (centres unmarked) [Example 70, 1-{5-(3-Fluorophenyl)-2-[3-(7H-pyrrolo[2,3-d]pyrimidin-4-yl)phenyl]-2,3-dihydro-1H-inden-2-yl}methanamine]	–	> 3000	–	–
NCC1(c2cccc(-c3ncnc4[nH]ccc34)c2)Cc2ccc(-c3ccc(F)cc3)cc2C1 (centres unmarked) [Example 71, 1-{5-(4-Fluorophenyl)-2-[3-(7H-pyrrolo[2,3-d]pyrimidin-4-yl)phenyl]-2,3-dihydro-1H-inden-2-yl}methanamine]	–	> 3000	–	–
CN(C)c1ccc(-c2ccc3c(c2)CC(CN)(c2cccc(-c4ncnc5[nH]ccc45)c2)C3)cc1 (centres unmarked) [Example 72, 4-{2-(Aminomethyl)-2-[3-(7H-pyrrolo[2,3-d]pyrimidin-4-yl)phenyl]-2,3-dihydro-1H-inden-5-yl}-N,N-dimethylaniline]	< 500	–	< 500	–
NCC1(c2cccc(-c3ncnc4[nH]ccc34)c2)Cc2ccc(-c3ccc4nccn4c3)cc2C1 (centres unmarked) [Example 73, 1-{5-Imidazo[1,2-a]pyridin-6-yl-2-[3-(7H-pyrrolo[2,3-d]pyrimidin-4-yl)phenyl]-2,3-dihydro-1H-inden-2-yl}methanamine]	> 3000	–	–	–
NCC1(c2cccc(-c3ncnc4[nH]ccc34)c2)Cc2ccc(-c3ccc(N4CCCC4)nc3)cc2C1 (centres unmarked) [Example 75, 1-{5-(6-Pyrrolidin-1-ylpyridin-3-yl)-2-[3-(7H-pyrrolo[2,3-d]pyrimidin-4-yl)phenyl]-2,3-dihydro-1H-inden-2-yl}methanamine]	> 3000	–	< 500	–
NCC1(c2cccc(-c3ncnc4[nH]ccc34)c2)Cc2ccc(-c3cccnc3)cc2C1 (centres unmarked) [Example 77, (2-(3-(7H-Pyrrolo[2,3-d]pyrimidin-4-yl)phenyl)-5-(pyridin-3-yl)-2,3-dihydro-1H-inden-2-yl)methanamine]	< 500	> 3000	–	–
NCC1(c2cccc(-c3ncnc4[nH]ccc34)c2)Cc2ccc(-c3ccncc3)cc2C1 (centres unmarked) [Example 78, (2-(3-(7H-Pyrrolo[2,3-d]pyrimidin-4-yl)phenyl)-5-(pyridin-4-yl)-2,3-dihydro-1H-inden-2-yl)methanamine]	–	> 3000	–	–
Cc1cc2c(-c3cccc(C4(CN)Cc5ccccc5C4)c3)ncnc2[nH]1 [Example 93, 1-{2-[3-(6-Methyl-7H-pyrrolo[2,3-d]pyrimidin-4-yl)phenyl]-2,3-dihydro-1H-inden-2-yl}methanamine]	> 3000	–	–	–
NCC1(c2cccc(-c3ncnc4[nH]ccc34)c2)CCc2ccccc2C1 (centres unmarked) [Example 99, 1-{2-[3-(7H-Pyrrolo[2,3-d]pyrimidin-4-yl)phenyl]-1,2,3,4-tetrahydronaphthalen-2-yl}methanamine]	–	< 500	–	< 500
NCC1(n2cc(-c3ncnc4[nH]ccc34)ccc2=O)Cc2ccccc2C1 [Example 100, 1-[2-(Aminomethyl)-2,3-dihydro-1H-inden-2-yl]-5-(7H-pyrrolo[2,3-d]pyrimidin-4-yl)pyridin-2(1H)-one]	–	< 500	< 500	–
